Patent US9072775B2, “Fluorescent emulsions for optical imaging” (priority 2007, dated 2015)
Blank lines part the entries; values can stand above or below the compound they belong to.

Tests used:
[1] = Fluorescence lifetime from time-resolved fluorescence decay; assay type: physicochemical; details: pulsed excitation 740 nm
Procedure: The fluorescence decays of the fluorophore free in solution in methanol or encapsulated in the lipid nanoparticles of oil-in-water emulsion type, in suspension in PBS (10 mM, pH 7.3), were measured on a measuring system using a neodymium-vanadate, continuous-wave laser [Millennia Pro, Spectra-Physics, USA], (532 nm, 5 W)-pumped sapphire-titanium laser [Tsunami, Spectra-Physics, USA] (80 MHz, 100 femtoseconds), tunable to a wavelength of 700 nm to 1000 nm. Depending on the operating mode of this device, the laser is injected into a multimode optical fiber, used as excitatory fiber for the sample to be studied. A second (detection) optical fiber collects the fluorescence emitted or the laser scattering via a filtering system. The signal is measured by means of a photomultiplier tube [Hamamatsu, Japan] coupled to a TCSPC counting board [Becker&Hickel, Germany]. The latter is controlled by means of a sampled part (4%) of the laser signal (pulse train) via a rapid photodiode (PD) [Becker&Hickel, Germany] before injection into the optical fiber.
The measurements were carried out using a pulsed excitation wavelength of 740 nm. The fluorescence intensity (in arbitrary units) was measured in order to plot curves reflecting the fluorescence decay (fluorescence intensity (arbitrary units) expressed as a function of time (in ps)); curves not represented. […]

[2] = in ethanol; cited from earlier work
[3] = Quantum yield of fluorescence relative to a reference standard; assay type: physicochemical; details: In solution in MeOH; reference Nile Blue perchlorate in ethanol
Procedure: The quantum yield of fluorescence (Φ) is expressed by the following equation: (Φ)=(number of photons emitted)/(number of photons absorbed).
(§1) It is common practice to determine a quantum yield relative to that of a reference standard, by the techniques known to those skilled in the art. The quantum yield of this formulation was calculated by comparison with a reference standard sample (Nile Blue perchlorate in ethanol, sold by Invitrogen) having a known quantum yield value equal to 0.27. The same measurements (carried out using a Varian spectrophotometer, model Cary 300 and a Perkin Elmer spectrofluorimeter, model LS 50) and calculations were carried out for a solution of DiD fluorophore in methanol (MeOH).

[4] = Absorption and emission spectra; assay type: physicochemical; details: In solution in MeOH
Procedure: as §1

Lifetime of the DiR fluorophore in solution in methanol [1]: 800 ps
Structure (SMILES): CCCCCCCCCCCCCCCCCCN1/C(=C/C=C/C=C/C=C/C2=[N+](CCCCCCCCCCCCCCCCCC)c3ccccc3C2(C)C)C(C)(C)c2ccccc21.[I-] [DiR, 1,1′-dioctadecyl-3,3,3′,3′-tetramethylindotricarbocyanin iodide]

Structure (SMILES): CC[N+](CC)=c1ccc2nc3c(cc(N)c4ccccc43)oc-2c1.[O-][Cl+3]([O-])([O-])[O-] [Nile Blue perchlorate]
known quantum yield value of reference standard [2]: 0.27

Structure (SMILES): CCCCCCCCCCCCCCCCCCN1C(=CC=CC=CC2=[N+](CCCCCCCCCCCCCCCCCC)c3ccccc3C2(C)C)C(C)(C)c2ccccc21.[O-][Cl+3]([O-])([O-])[O-] [DiD, 1,1′-dioctadecyl-3,3,3′,3′-tetramethylindodicarbocyanin perchlorate]
Quantum yield [3]: 0.29
Emission [4]: 665 nm
Max. absorption [4]: 644 nm
